Measured values: ChEMBL document CHEMBL5226286, “The application of isatin-based multicomponent-reactions in the quest for new bioactive and druglike molecules” (Eur J Med Chem, 2021)
In brackets after ≈: the same amount, converted by molar mass. Blank lines part the entries; values can stand above or below the molecule they belong to.

Experiments:
Cholinesterase = Cholinesterase (Homo sapiens, UniProt P06276); test: Inhibition of BChE (unknown origin)
Acetylcholinesterase = Acetylcholinesterase (Homo sapiens, UniProt P22303); test: Inhibition of AChE (unknown origin)
Acetylcholinesterase, sequence (P22303 whole entry): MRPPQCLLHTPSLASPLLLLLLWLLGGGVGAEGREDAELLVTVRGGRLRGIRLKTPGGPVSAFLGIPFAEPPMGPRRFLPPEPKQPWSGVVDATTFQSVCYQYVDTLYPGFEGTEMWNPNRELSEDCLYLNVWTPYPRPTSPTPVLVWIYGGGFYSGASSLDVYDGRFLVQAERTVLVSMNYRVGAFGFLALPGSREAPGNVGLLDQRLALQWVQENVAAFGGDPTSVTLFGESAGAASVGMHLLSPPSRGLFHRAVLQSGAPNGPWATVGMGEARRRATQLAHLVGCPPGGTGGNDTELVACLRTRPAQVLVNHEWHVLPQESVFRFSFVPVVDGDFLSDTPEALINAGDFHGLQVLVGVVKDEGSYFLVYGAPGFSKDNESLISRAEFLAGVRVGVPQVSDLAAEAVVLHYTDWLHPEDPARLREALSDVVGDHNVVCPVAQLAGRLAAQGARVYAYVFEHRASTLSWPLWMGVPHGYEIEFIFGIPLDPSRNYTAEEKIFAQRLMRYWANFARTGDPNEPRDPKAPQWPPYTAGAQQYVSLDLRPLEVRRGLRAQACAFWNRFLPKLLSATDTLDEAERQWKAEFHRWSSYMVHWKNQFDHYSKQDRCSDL

Aspergillus niger = test: Antifungal activity against Aspergillus niger assessed as zone of inhibition at 25 ug/ml; format: functional; settings: read-out: DIZ
Candida metapsilosis = test: Antifungal activity against Candida metapsilosis assessed as zone of inhibition at 25 ug/ml; format: functional; settings: Lodderomyces metapsilosis, read-out: DIZ
PC-3 = test: Antiproliferative activity against human PC-3 cells; format: functional, cell-based
LNCaP = test: Antiproliferative activity against human LNCaP cells; format: functional, cell-based
SMMC-7721 = test: Antiproliferative activity against human SMMC-7721 cells; format: functional, cell-based
ECa-109 cell line = test: Antiproliferative activity against human EC109 cells; format: functional, cell-based
MGC-803 = test: Antiproliferative activity against human MGC-803 cells; format: functional, cell-based
HeLa [1] = test: Cytotoxicity against human HeLa cells; format: functional, cell-based
[2] = system: Syncephalastrum racemosum; test: Antifungal activity against Syncephalastrum racemosum RCMB 05922 assessed as zone of inhibition; format: functional
Leishmania major = test: Antileishmanial activity against Leishmania major promastigotes incubated for 72 hrs by micrscopic analysis; format: functional
Geotrichum candidum [3] = test: Antifungal activity against Geotrichum candidum RCMB 05097 assessed as zone of inhibition; format: functional
Candida albicans [4] = test: Antifungal activity against Candida albicans RCMB 05036; format: functional
Aspergillus fumigatus [5] = test: Antifungal activity against Aspergillus fumigatus RCMB 02568; format: functional
Nakaseomyces glabratus = test: Antifungal activity against Candida glabrata; format: functional
Candida albicans [6] = test: Antifungal activity against Candida albicans; format: functional
Geotrichum candidum [7] = test: Antifungal activity against Geotrichum candidum RCMB 05097; format: functional
Saccharomyces cerevisiae = test: Antifungal activity against Saccharomyces cerevisiae MTCC 170; format: functional
Aspergillus fumigatus [8] = test: Antifungal activity against Aspergillus fumigatus RCMB 02568 assessed as zone of inhibition; format: functional
[9] = system: Syncephalastrum racemosum; test: Antifungal activity against Syncephalastrum racemosum RCMB 05922; format: functional
Candida albicans [10] = test: Antifungal activity against Candida albicans MTCC 227; format: functional
Candida albicans [11] = test: Antifungal activity against Candida albicans RCMB 05036 assessed as zone of inhibition; format: functional
Candida tropicalis = test: Antifungal activity against Candida tropicalis; format: functional
Escherichia coli [12] = test: microbe, parasite or virus in culture
Staphylococcus aureus [13] = test: microbe, parasite or virus in culture
Bacillus subtilis [14] = test: Antibacterial activity against Bacillus subtilis; format: functional
T47D = test: Antiproliferative activity against human T47D cells by MTT reduction assay; format: functional, cell-based
MDA-MB-231 [15] = test: Antiproliferative activity against human MDA-MB-231 cells by MTT reduction assay; format: functional, cell-based
MCF7 = test: Antiproliferative activity against human MCF7 cells by MTT reduction assay; format: functional, cell-based
Bacillus subtilis [16] = test: Antibacterial activity against Bacillus subtilis by agar well diffusion method; format: functional
Staphylococcus aureus [17] = test: Antibacterial activity against Staphylococcus aureus by agar well diffusion method; format: functional
Escherichia coli [18] = test: Antibacterial activity against Escherichia coli by agar well diffusion method; format: functional
Tobacco mosaic virus [19] = test: Antiviral activity against Tobacco mosaic virus assessed as curative effect relative to control; format: functional
Tobacco mosaic virus [20] = test: Antiviral activity against Tobacco mosaic virus assessed as inactivation effect relative to control; format: functional
Tobacco mosaic virus [21] = test: Antiviral activity against Tobacco mosaic virus assessed as protection effect relative to control; format: functional
HepG2 = test: Growth inhibition of human HepG2 cells at 20 micromol relative to control; format: functional; settings: dose 20 µmol
HeLa [22] = test: Growth inhibition of human HeLa cells at 20 micromol relative to control; format: functional; settings: dose 20 µmol
MDA-MB-231 [23] = test: Growth inhibition of human MDA-MB-231 cells at 20 micromol relative to control; format: functional; settings: dose 20 µmol
A549 = test: Anticancer activity against human A549 cells by MTT assay; format: functional, cell-based
K562 = test: Anticancer activity against human K562 cells by MTT assay; format: functional, cell-based

Cholinesterase, sequence (P06276 whole entry): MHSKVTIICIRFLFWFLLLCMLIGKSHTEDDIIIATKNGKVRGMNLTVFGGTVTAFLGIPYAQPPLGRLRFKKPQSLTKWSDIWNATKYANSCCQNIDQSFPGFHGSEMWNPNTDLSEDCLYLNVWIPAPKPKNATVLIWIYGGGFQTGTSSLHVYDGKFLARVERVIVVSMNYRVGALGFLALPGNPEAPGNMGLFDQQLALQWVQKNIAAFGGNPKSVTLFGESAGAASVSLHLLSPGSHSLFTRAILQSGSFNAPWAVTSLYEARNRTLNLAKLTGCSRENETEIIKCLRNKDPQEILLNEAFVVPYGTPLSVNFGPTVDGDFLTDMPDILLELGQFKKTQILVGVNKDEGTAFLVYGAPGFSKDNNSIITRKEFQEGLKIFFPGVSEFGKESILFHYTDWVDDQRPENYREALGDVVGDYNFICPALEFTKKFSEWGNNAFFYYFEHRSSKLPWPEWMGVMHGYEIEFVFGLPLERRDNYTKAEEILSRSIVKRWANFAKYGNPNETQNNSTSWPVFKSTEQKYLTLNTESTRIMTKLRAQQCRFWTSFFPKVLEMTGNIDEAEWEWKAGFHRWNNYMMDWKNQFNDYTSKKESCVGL

Structure (SMILES): COc1cc2c(cc1OC)C(=O)[C@]1(C2)[C@H](c2cccc([N+](=O)[O-])c2)[C@H](Cc2c[nH]c3ccccc23)NC12C(=O)Nc1ccccc12 (some centres undefined)
IC50 (Cholinesterase): 28.4 µM
IC50 (Acetylcholinesterase): 1.89 µM

Structure (SMILES): CCOC1=Nc2ccc(Br)cc2/C1=C\C(=O)c1ccccc1O
zone of inhibition at 25 µg/mL (Aspergillus niger): 11 mm
zone of inhibition at 25 µg/mL (Candida metapsilosis): 11 mm

IC50 (PC-3): 0.03 µM
IC50 (LNCaP): 1.9 µM
Structure (SMILES): O=C1c2ccccc2C2Oc3c(c(=O)oc4ccccc34)C3(C(=O)Nc4ccc(Br)cc43)C12 (centres undefined)

Structure (SMILES): COc1cc2c(cc1OC)C(=O)[C@]1(C2)[C@H](c2ccc(C)cc2)[C@H](Cc2c[nH]c3ccccc23)NC12C(=O)Nc1ccccc12 (some centres undefined)
IC50 (Cholinesterase): 2.24 µM
IC50 (Acetylcholinesterase): 14.2 µM

Structure (SMILES): COC1=CC(=O)C[C@@H](C)[C@]12Oc1c(Cl)c(OC)cc(OC)c1C2=O [GRISEOFULVIN]
zone of inhibition at 25 µg/mL (Aspergillus niger): 10 mm
zone of inhibition at 25 µg/mL (Candida metapsilosis): 10 mm

Structure (SMILES): COc1cc2c(cc1OC)C(=O)[C@]1(C2)[C@H](c2ccccc2OC)[C@H](Cc2c[nH]c3ccccc23)NC12C(=O)Nc1ccccc12 (some centres undefined)
IC50 (Cholinesterase): 24 µM
IC50 (Acetylcholinesterase): 2.76 µM

IC50 (SMMC-7721): 9.6 µM
IC50 (MGC-803): 4.2 µM
Structure (SMILES): C[C@]12CC[C@H](O)CC1=CCC1C2CC[C@@]2(C)C1CC[C@@H]2C1=CC2(C(=O)Nc3ccc(Cl)cc32)C(C#N)=C(N)N1 (some centres undefined)
IC50 (ECa-109 cell line): 3.8 µM

Structure (SMILES): CCN(CC)CCNC(=O)c1c(C)[nH]c(/C=C2\C(=O)Nc3ccc(F)cc32)c1C [SUNITINIB]
IC50 (HeLa [1]): > 30 µM

Structure (SMILES): COc1cccc([C@@H]2[C@H](Cc3c[nH]c4ccccc34)NC3(C(=O)Nc4ccccc43)[C@@]23Cc2cc(OC)c(OC)cc2C3=O)c1 (some centres undefined)
IC50 (Cholinesterase): 8.32 µM
IC50 (Acetylcholinesterase): 2.31 µM

Structure (SMILES): C[C@@H]1[C@H](O)[C@@H](C)/C=C/C=C/C=C/C=C/C=C/C=C/C=C/[C@H](O[C@@H]2O[C@H](C)[C@@H](O)[C@H](N)[C@@H]2O)C[C@@H]2O[C@](O)(C[C@@H](O)C[C@@H](O)[C@H](O)CC[C@@H](O)C[C@@H](O)CC(=O)O[C@H]1C)C[C@H](O)[C@H]2C(=O)O [AMPHOTERICIN B]
diameter of the inhibition zone (DIZ) [2]: 22.1 mm
MIC (Leishmania major): 0.49 µM (≈ 0.453 µg/mL)
diameter of the inhibition zone (DIZ) (Geotrichum candidum [3]): 29 mm
MIC (Candida albicans [4]): 0.06 µg/mL (≈ 0.0649 µM)
MIC (Aspergillus fumigatus [5]): 0.015 µg/mL (≈ 0.0162 µM)
MIC (Nakaseomyces glabratus): 12.5 µg/mL (≈ 13.5 µM)
MIC (Candida albicans [6]): 12.5 µg/mL (≈ 13.5 µM)
MIC (Geotrichum candidum [7]): 0.015 µg/mL (≈ 0.0162 µM)
MIC (Saccharomyces cerevisiae): 100 µg/mL (≈ 108 µM)
diameter of the inhibition zone (DIZ) (Aspergillus fumigatus [8]): 23 mm
MIC [9]: 1.95 µg/mL (≈ 2.11 µM)
MIC (Candida albicans [10]): 100 µg/mL (≈ 108 µM)
diameter of the inhibition zone (DIZ) (Candida albicans [11]): 26 mm
MIC (Candida tropicalis): 12.5 µg/mL (≈ 13.5 µM)

Structure (SMILES): O=C(N[C@H](CO)[C@H](O)c1ccc([N+](=O)[O-])cc1)C(Cl)Cl [CHLORAMPHENICOL]
MIC (Escherichia coli [12]): 4 µg/mL (≈ 12.4 µM)
MIC (Staphylococcus aureus [13]): 8 µg/mL (≈ 24.8 µM)
MIC (Bacillus subtilis [14]): 4 µg/mL (≈ 12.4 µM)

IC50 (SMMC-7721): > 128 µM
IC50 (MGC-803): > 128 µM
Structure (SMILES): C[C@]12CC[C@H](O)CC1=CCC1C2CC[C@@]2(C)C1CC[C@@H]2C1=CC2(C(=O)N(Cc3ccc(Cl)c(Cl)c3)c3ccccc32)C(C#N)=C(N)N1 (some centres undefined)
IC50 (ECa-109 cell line): 0.3 µM

Structure (SMILES): CCOC1=Nc2ccccc2/C1=C\C(=O)c1ccc([N+](=O)[O-])cc1
zone of inhibition at 25 µg/mL (Aspergillus niger): 11 mm
zone of inhibition at 25 µg/mL (Candida metapsilosis): 11 mm

IC50 (T47D): 6.2 µM
IC50 (MDA-MB-231 [15]): 5.8 µM
IC50 (MCF7): 5.4 µM
Structure (SMILES): O=C(c1ccc(OCCN2CCCC2)cc1)[C@H]1[C@H](c2ccccc2)C2CS[C@H](c3ccccc3)N2C12C(=O)Nc1ccc(F)cc12 (some centres undefined)

MIC (Bacillus subtilis [16]): 32 µg/mL (≈ 61.1 µM)
MIC (Staphylococcus aureus [17]): 32 µg/mL (≈ 61.1 µM)
MIC (Escherichia coli [18]): 128 µg/mL (≈ 244 µM)
Structure (SMILES): O=C1CCCC2=C1C1(C(=O)N2c2ccc(Cl)cc2)C2=C(Nc3ccc([N+](=O)[O-])cc31)c1ccccc1C2=O (centres undefined)

MIC (Escherichia coli [12]): 256 µg/mL (≈ 537 µM)
MIC (Staphylococcus aureus [13]): 128 µg/mL (≈ 269 µM)
MIC (Bacillus subtilis [14]): 12 µg/mL (≈ 25.2 µM)
Structure (SMILES): Cc1nn(-c2ccccc2)c2c1C1(C(=O)Nc3ccc(Br)cc31)C1=C(CCCC1=O)O2 (centres undefined)

Structure (SMILES): CN1C[C@@H](c2ccccc2)[C@@]2(Oc3cc(O)ccc3C2=O)[C@@]12C(=O)N(Cc1ccccc1)c1ccccc12
Activity (Tobacco mosaic virus [19]): 52.3%
Activity (Tobacco mosaic virus [20]): 57.1%
Activity (Tobacco mosaic virus [21]): 50.9%

MIC (Saccharomyces cerevisiae): 64 µg/mL (≈ 129 µM)
MIC (Candida albicans [10]): 128 µg/mL (≈ 259 µM)
Structure (SMILES): COc1ccc(-n2cc(CN3C(=O)C4(C(C#N)=C(N)OC5=C4C(=O)CCC5)c4ccccc43)nn2)cc1 (centres undefined)

Structure (SMILES): Cc1ccc(/C=C2/CN(C)CC3=C2OC(N)=C(C#N)C32C(=O)Nc3ccccc32)cc1C (centres undefined)
growth inhibition (GI) (HepG2): 70.2%
growth inhibition (GI) (HeLa [22]): 87.1%
growth inhibition (GI) (MDA-MB-231 [23]): 64.9%

Structure (SMILES): CC(C)=CC(=O)[C@H]1[C@H](c2ccc(Br)cc2)CN(C)[C@]12C(=O)Nc1ccc(C)cc12
IC50 (A549): 21.1 µM
IC50 (K562): 5.8 µM
